Test results reported in ChEMBL document CHEMBL6177933, “Discovery of Sophoridine α-Aryl Propionamide Derivative ZM600 as a Novel Antihepatic Fibrosis Agent” (J Med Chem, 2024).
Activity calls are given as the source filed them. The calls are words filed in the database; no cut-off is given here.

Experiments:
Mus musculus [1] = assay: (§1) Antifibrotic activity against CCL4-induced C57BL/6J mouse hepatic fibrosis model assessed as reduction in alphaSMA expression in liver at 15 to 30 mg/kg, po administered via gavage for 4 weeks starting from 5th week of CCL4 stimulation by qRT-PCR analysis; type: functional, organism-based; settings: dose 15-30 mg/kg
Mus musculus [2] = assay: Antifibrotic activity against BDL-induced C57BL/6J mouse hepatic fibrosis model assessed as reduction in collagen deposition in liver at 15 to 30 mg/kg, po administered via gavage starting from 3 days post-BDL by Sirius Red and Masson staining based assay; type: functional, organism-based; settings: dose 15-30 mg/kg
RAW264.7 [3] = assay: Antiinflammatory activity in mouse RAW264.7 cells assessed as inhibition of TGFbeta1-induced collagen 1 mRNA expression at 5 to 20 uM preincubated for 2 hrs […] and measured after 48 hrs by qRT-PCR analysis; type: functional, cell-based; settings: dose 5-20 µM, time 50.0 hrs
Mus musculus [4] = assay: In vivo inhibition of p65 phosphorylation in BDL-induced C57BL/6J mouse hepatic fibrosis model at 15 to 30 mg/kg, po administered via gavage starting from 3 days post-BDL by Western blot analysis; type: functional, organism-based; settings: dose 15-30 mg/kg
Mus musculus [5] = assay: In vivo inhibition of JNK phosphorylation in CCL4-induced C57BL/6J mouse hepatic fibrosis model at 15 to 30 mg/kg, po administered via gavage for 4 weeks starting from 5th week of CCL4 stimulation by Western blot analysis; type: functional, organism-based; settings: dose 15-30 mg/kg
Mus musculus [6] = assay: Antifibrotic activity against CCL4-induced C57BL/6J mouse hepatic fibrosis model assessed as reduction in rough surface of liver at 15 to 30 mg/kg, po administered via gavage for 4 weeks starting from 5th week of CCL4 stimulation; type: functional, organism-based; settings: dose 15-30 mg/kg
Mus musculus [7] = assay: In vivo inhibition of Smad2 phosphorylation in BDL-induced C57BL/6J mouse hepatic fibrosis model at 15 to 30 mg/kg, po administered via gavage starting from 3 days post-BDL by Western blot analysis; type: functional, organism-based; settings: dose 15-30 mg/kg
RAW264.7 [8] = assay: Antiinflammatory activity in mouse RAW264.7 cells assessed as inhibition of TGFbeta1-induced collagen 1 expression at 5 to 20 uM preincubated for 2 hrs […] and measured after 48 hrs by Western blot analysis; type: functional, cell-based; settings: dose 5-20 µM, time 50.0 hrs
[9] = biological target: Mothers against decapentaplegic homolog 3 (Homo sapiens) (UniProt P84022); assay: Inhibition of TGFbeta1-induced Smad3 phosphorylation in human LX-2 cells preincubated for 2 hrs followed by […] stimulation and measured after 2 hrs by Western blot analysis; type: cell-based; settings: dose 5-20 µM, time 4.0 hrs
Mus musculus [10] = assay: Antifibrotic activity against BDL-induced C57BL/6J mouse hepatic fibrosis model assessed as reduction in collagen 1 mRNA expression in liver at 15 to 30 mg/kg, po administered via gavage starting from 3 days post-BDL by qRT-PCR analysis; type: functional, organism-based; settings: dose 15-30 mg/kg
[11] = biological target: Mothers against decapentaplegic homolog 2 (Homo sapiens) (UniProt Q15796); assay: Inhibition of TGFbeta1-induced Smad2 phosphorylation in human LX-2 cells preincubated for 2 hrs followed by […] stimulation and measured after 2 hrs by Western blot analysis; type: cell-based; settings: dose 5-20 µM, time 4.0 hrs
Mus musculus [12] = assay: Antifibrotic activity against BDL-induced C57BL/6J mouse hepatic fibrosis model assessed as reduction in alphaSMA expression in liver at 15 to 30 mg/kg, po administered via gavage starting from 3 days post-BDL by Western blot analysis; type: functional, organism-based; settings: dose 15-30 mg/kg
Mus musculus [13] = assay: as §1, with “infiltration of inflammatory cells” for “alphaSMA expression”, “H and E staining based histopathological” for “qRT-PCR”; type: functional, organism-based; settings: dose 15-30 mg/kg
RAW264.7 [14] = assay: Antiinflammatory activity in mouse RAW264.7 cells assessed as inhibition of LPS-induced alpha-SMA mRNA expression at 5 to 20 uM preincubated for 2 hrs followed by LPS stimulation and measured after 48 hrs by qRT-PCR analysis; type: functional, cell-based; settings: dose 5-20 µM, time 50.0 hrs
LX-2 [15] = assay: Inhibition of TGFbeta1-induced AKT phosphorylation in human LX-2 cells preincubated for 2 hrs followed by […] stimulation and measured after 2 hrs by Western blot analysis; type: cell-based; settings: dose 5-20 µM, time 4.0 hrs
RAW264.7 [16] = assay: Antiinflammatory activity in mouse RAW264.7 cells assessed as inhibition of TGFbeta1-induced alpha-SMA mRNA expression at 5 to 20 uM preincubated for 2 hrs […] and measured after 48 hrs by qRT-PCR analysis; type: functional, cell-based; settings: dose 5-20 µM, time 50.0 hrs
Mus musculus [17] = assay: In vivo inhibition of ERK1/2 phosphorylation in CCL4-induced C57BL/6J mouse hepatic fibrosis model at 15 to 30 mg/kg, po administered via gavage for 4 weeks starting from 5th week of CCL4 stimulation by Western blot analysis; type: functional, organism-based; settings: dose 15-30 mg/kg
RAW264.7 [18] = assay: Antiinflammatory activity in mouse RAW264.7 cells assessed as inhibition of LPS-induced collagen 1 mRNA expression at 5 to 20 uM preincubated for 2 hrs followed by LPS stimulation and measured after 48 hrs by qRT-PCR analysis; type: functional, cell-based; settings: dose 5-20 µM, time 50.0 hrs
Mus musculus [19] = assay: Antifibrotic activity against BDL-induced C57BL/6J mouse hepatic fibrosis model assessed as reduction in alphaSMA expression in liver at 15 to 30 mg/kg, po administered via gavage starting from 3 days post-BDL by immunohistochemical staining based assay; type: functional, organism-based; settings: dose 15-30 mg/kg
[20] = biological target: c-Jun N-terminal kinase, JNK (Homo sapiens) (UniProt P45983+P53779+P45984); assay: Inhibition of TGFbeta1-induced JNK phosphorylation in human LX-2 cells at 5 to 20 uM preincubated for 2 hrs followed by […] stimulation and measured after 2 hrs by Western blot analysis; type: cell-based; settings: dose 5-20 µM, time 4.0 hrs
Mus musculus [21] = assay: In vivo inhibition of AKT phosphorylation in CCL4-induced C57BL/6J mouse hepatic fibrosis model at 15 to 30 mg/kg, po administered via gavage for 4 weeks starting from 5th week of CCL4 stimulation by Western blot analysis; type: functional, organism-based; settings: dose 15-30 mg/kg
Mus musculus [22] = assay: In vivo inhibition of Smad2 phosphorylation in CCL4-induced C57BL/6J mouse hepatic fibrosis model at 15 to 30 mg/kg, po administered via gavage for 4 weeks starting from 5th week of CCL4 stimulation by Western blot analysis; type: functional, organism-based; settings: dose 15-30 mg/kg
Mus musculus [23] = assay: Antifibrotic activity against BDL-induced C57BL/6J mouse hepatic fibrosis model assessed as improvement in histological changes at 15 to 30 mg/kg, po administered via gavage starting from 3 days post-BDL; type: functional, organism-based; settings: dose 15-30 mg/kg
LX-2 [24] = assay: Inhibition of TGFbeta1-induced ERK1/2 phosphorylation in human LX-2 cells at 5 to 20 uM preincubated for 2 hrs followed by […] stimulation and measured after 2 hrs by Western blot analysis; type: cell-based; settings: dose 5-20 µM, time 4.0 hrs
RAW264.7 [25] = assay: Antiinflammatory activity in mouse RAW264.7 cells assessed as inhibition of LPS-induced alpha-SMA expression at 5 to 20 uM preincubated for 2 hrs followed by LPS stimulation and measured after 48 hrs by Western blot analysis; type: functional, cell-based; settings: dose 5-20 µM, time 50.0 hrs
Mus musculus [26] = assay: In vivo inhibition of JNK phosphorylation in BDL-induced C57BL/6J mouse hepatic fibrosis model at 15 to 30 mg/kg, po administered via gavage starting from 3 days post-BDL by Western blot analysis; type: functional, organism-based; settings: dose 15-30 mg/kg
Mus musculus [27] = assay: Antifibrotic activity against CCL4-induced C57BL/6J mouse hepatic fibrosis model assessed as reduction in collagen 1 expression in liver at 15 to 30 mg/kg, po administered via gavage for 4 weeks starting from 5th week of CCL4 stimulation by Western blot analysis; type: functional, organism-based; settings: dose 15-30 mg/kg

Chain of Mothers against decapentaplegic homolog 2 (Homo sapiens) (Q15796 whole entry): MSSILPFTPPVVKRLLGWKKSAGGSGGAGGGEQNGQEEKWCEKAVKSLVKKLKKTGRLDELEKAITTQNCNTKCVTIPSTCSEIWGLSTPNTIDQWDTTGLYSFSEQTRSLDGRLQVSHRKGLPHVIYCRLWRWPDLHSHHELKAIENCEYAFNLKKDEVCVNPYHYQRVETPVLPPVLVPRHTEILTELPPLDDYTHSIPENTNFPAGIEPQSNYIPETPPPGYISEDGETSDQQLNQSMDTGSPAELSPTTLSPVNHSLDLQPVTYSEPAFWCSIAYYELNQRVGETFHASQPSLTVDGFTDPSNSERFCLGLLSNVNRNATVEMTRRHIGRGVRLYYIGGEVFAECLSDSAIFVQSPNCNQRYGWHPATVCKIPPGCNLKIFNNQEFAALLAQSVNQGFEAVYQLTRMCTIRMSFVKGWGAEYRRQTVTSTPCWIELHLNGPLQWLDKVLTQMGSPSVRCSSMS
Chain of Mothers against decapentaplegic homolog 3 (Homo sapiens) (P84022 2-425 limits assumed): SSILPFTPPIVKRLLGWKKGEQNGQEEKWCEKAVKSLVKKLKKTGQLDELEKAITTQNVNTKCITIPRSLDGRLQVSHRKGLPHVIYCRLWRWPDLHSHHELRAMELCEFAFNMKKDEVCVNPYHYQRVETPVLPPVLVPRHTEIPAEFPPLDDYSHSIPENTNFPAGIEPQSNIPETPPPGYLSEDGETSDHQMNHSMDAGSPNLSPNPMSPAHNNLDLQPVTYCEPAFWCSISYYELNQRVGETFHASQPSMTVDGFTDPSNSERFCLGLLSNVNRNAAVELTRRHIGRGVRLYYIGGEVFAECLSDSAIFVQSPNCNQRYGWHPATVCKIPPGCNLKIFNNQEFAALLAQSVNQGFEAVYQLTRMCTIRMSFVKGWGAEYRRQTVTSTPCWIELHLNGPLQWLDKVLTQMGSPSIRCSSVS

Structure (SMILES): COC(=O)CCC[C@@H]1[C@H]2CCCN3CCC[C@H](CN1C(=O)C(C)c1ccc(-c4ccccc4)c(F)c1)[C@@H]23 (some centres not stated)
- Activity (Mus musculus [1]): Active
- Activity (Mus musculus [2]): Active
- inhibition (RAW264.7 [3]): Active
- inhibition (Mus musculus [4]): Active
- inhibition (Mus musculus [5]): inactive
- Activity (Mus musculus [6]): Active; Significant Alleviation Observed
- inhibition (Mus musculus [7]): Active
- inhibition (RAW264.7 [8]): Active
- inhibition [9]: Dose-dependent-effect
- Activity (Mus musculus [10]): Active
- inhibition [11]: Dose-dependent-effect
- Activity (Mus musculus [12]): Active
- Activity (Mus musculus [13]): Active
- inhibition (RAW264.7 [14]): Active
- inhibition (LX-2 [15]): Dose-dependent-effect
- inhibition (RAW264.7 [16]): Active
- inhibition (Mus musculus [17]): inactive
- inhibition (RAW264.7 [18]): Active
- Activity (Mus musculus [19]): Active
- inhibition [20]: inactive
- inhibition (Mus musculus [21]): Active
- inhibition (Mus musculus [22]): Active
- Activity (Mus musculus [23]): Active
- inhibition (LX-2 [24]): inactive
- inhibition (RAW264.7 [25]): Active
- inhibition (Mus musculus [26]): inactive
- Activity (Mus musculus [27]): Active
